# From patent publication US20160199393A1, “METHODS OF TREATING BRAIN ISCHEMIA OR HYPOXIA” (China Medical University, priority 2015, published 2016)
# What was measured:
# system xc− = biological target: T1, system xc− (Mus musculus, UniProt Q9WTR6); assay: Extracellular glutamate content in WT cortical cells exposed to OGDR; type: cell-based; conditions: 24 h after reperfusion, 10 μM (SAS 500 μM)
# T1 construct: endogenous in cells; host or cells: primary cortical cells from E17 wild-type C57BL/6J mouse embryos, exposed to OGDR
# T1 sequence (Q9WTR6 1-502): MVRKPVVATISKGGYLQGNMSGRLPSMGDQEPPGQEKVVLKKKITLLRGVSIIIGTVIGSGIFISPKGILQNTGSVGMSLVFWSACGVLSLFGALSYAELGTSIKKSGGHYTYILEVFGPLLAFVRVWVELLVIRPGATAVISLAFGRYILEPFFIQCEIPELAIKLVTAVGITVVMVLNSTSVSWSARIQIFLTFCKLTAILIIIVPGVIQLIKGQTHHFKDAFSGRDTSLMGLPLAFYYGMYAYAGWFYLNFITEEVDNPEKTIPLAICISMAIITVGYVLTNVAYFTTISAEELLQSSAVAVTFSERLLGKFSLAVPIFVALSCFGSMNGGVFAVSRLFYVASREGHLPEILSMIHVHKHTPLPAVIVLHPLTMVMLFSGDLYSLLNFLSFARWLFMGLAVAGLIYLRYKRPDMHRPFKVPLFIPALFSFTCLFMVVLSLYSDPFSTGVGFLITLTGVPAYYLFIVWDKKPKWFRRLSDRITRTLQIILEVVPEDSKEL
# T1 sequence (P10852 1-526 partner): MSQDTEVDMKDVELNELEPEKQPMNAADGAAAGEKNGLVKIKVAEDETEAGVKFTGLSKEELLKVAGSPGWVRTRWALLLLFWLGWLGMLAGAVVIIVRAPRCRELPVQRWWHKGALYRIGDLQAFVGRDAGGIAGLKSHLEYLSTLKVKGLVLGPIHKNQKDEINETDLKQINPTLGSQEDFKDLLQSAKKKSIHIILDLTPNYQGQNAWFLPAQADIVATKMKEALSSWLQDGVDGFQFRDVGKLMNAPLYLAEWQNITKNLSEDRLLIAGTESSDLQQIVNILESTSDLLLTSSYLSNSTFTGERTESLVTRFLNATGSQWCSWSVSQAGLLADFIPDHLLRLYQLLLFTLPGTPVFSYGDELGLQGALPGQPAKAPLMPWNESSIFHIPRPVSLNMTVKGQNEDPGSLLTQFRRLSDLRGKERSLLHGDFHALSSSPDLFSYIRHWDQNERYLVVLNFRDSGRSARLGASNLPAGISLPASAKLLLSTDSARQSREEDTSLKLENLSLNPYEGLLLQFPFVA
# Method: (§1) Primary cortical cells were prepared from cerebral cortices of wild-type C57BL/6J or homozygote xCT^−/− mouse embryos in embryonic day 17 as previously described with modification (Goldberg M P, Choi D W. Combined oxygen and glucose deprivation in cortical cell culture: calcium-dependent and calcium-independent mechanisms of neuronal injury. The Journal of neuroscience: the official journal of the Society for Neuroscience, 1993; 13(8):3510-24, which is incorporated here by reference).
# WT cortical cells = assay: Lactate dehydrogenase (LDH) level in WT cortical cells after OGD/OGDR; type: cell-based, mouse; conditions: OGDR, 24 h after reperfusion, 10 μM (SAS 500 μM)
# Method: as §1
# The LDH assay was carried out at 24 hours after reperfusion. *P<0.01 compared to drugs-untreated cells (Un), one-way ANOVA. Error bars denote the standard deviation among triplicate experiments.
# neurons = assay: Annexin V flow cytometric apoptosis assay after OGDR, neurons; type: cell-based, mouse; conditions: WT cortical cells, 24 h after reperfusion, 10 μM (SAS 500 μM)
# Method: (§2) Annexin V staining was performed to determine cell apoptosis using the Annexin V-FITC Apoptosis Detection Kit (Sigma-Aldrich) for 10 min at room temperature according to the manufacturers instructions, and then flow cytometric analysis was performed.
# (§3) The three-color staining flow cytometric assay using allophycocyanin-microtubule-associated protein 2 (MAP2) for neuron staining, phycoerythrin (PE)-GFAP for astrocyte staining and FITC-annexin V for apoptotic cell staining was performed to count the numbers of neurons, astrocytes, and apoptotic cells. FIGS. 21A and […] show the results of apoptosis in wild type (WT) and xCT^−/− cortical cells treated with OGDR at 24 h after reperfusion. *P<0.01 compared to WT without OGDR, Student's t-test. ^#P<0.01 compared to WT with OGDR, Student's t-test. From FIGS. 21A and 21B it was observed that that smaller numbers of apoptotic cells were present in xCT^−/− neurons and astrocytes after OGDR treatment.
# astrocytes = assay: Annexin V flow cytometric apoptosis assay after OGDR, astrocytes; type: cell-based, mouse; conditions: WT cortical cells, 24 h after reperfusion, 10 μM (SAS 500 μM)
# Method: as §2, §3
# cortical infarct [1] = assay: TTC staining infarct volume in rats with CIR; type: in vivo, rat; conditions: 30 mg/kg ip for 3 days, compared to vehicle
# NMDAR = conditions: WT cortical cells, OGDR, 24 h after reperfusion; 10 μM (SAS 500 μM)
# ischemic cortex = assay: Microdialysis of extracellular glutamate in ischemic cortex of rats with CIR; type: in vivo, rat
# Method: (§4) Eight to ten-week-old male adult male Sprague-Dawley rats, C57BL/6J mice and xCT^−/− mice were anesthetized with 1.5% isoflurane in oxygen, allowed breathing spontaneously, and body temperature was maintained at 37° C. with a heat lamp during surgery for right middle cerebral artery ligation and bilateral common carotid artery clamping as previously described (Chen S T, Hsu C Y, Hogan E L, Maricq H, Balentine J D. A model of focal ischemic stroke in the rat: reproducible extensive cortical infarction. Stroke; a journal of cerebral circulation. 1986; 17(4):738-43, which is incorporated here by reference). Animals were subjected to transient cerebral ischemia for 90 min in rats and 2 h in mice.
# Samples were diluted in 20 mM borate buffer at pH 9.0 and were derivatized for 1 min with N-tert-butyloxycarbonyl-L-cysteine and o-phthaldialdehyde. Samples then were separated in a 5-mm C18 reverse-phase column (220×4.6 mm) Sheri-5 (Brownlee), and glutamate was monitored by fluorescence (334 nm excitation and 433 nm emission) using an RF-10AXL fluorescence detector (Shimadzu). Standards of glutamate were assayed before and after the dialysis samples. […]
# TUNEL-positive cells = assay: TUNEL histochemistry in the ipsilateral cerebral hemisphere of rats with CIR; type: in vivo, rat
# Method: Animals were subjected to transient cerebral ischemia for 90 min in rats and 2 h in mice.
# To detect apoptosis, a TUNEL staining Kit (DeadEnd Fluorimetric TUNEL system; Promega) was used for the TUNEL assay (Shyu W C, Lin S Z, Chiang M F, Chen D C, Su C Y, Wang H J, et al. Secretoneurin promotes neuroprotection and neuronal plasticity via the Jak2/Stat3 pathway in murine models of stroke. The Journal of clinical investigation. 2008; 118(1):133-48, which is incorporated by reference).
# (§5) Rats were treated intraperitoneal injection with either vehicle, SAS (5 mg/kg/day) or the mixture of sulfapyridine (5-ASA, 3.12 mg/kg/day) and salicylate (SP, 1.72 mg/kg) for 3 days after brain ischemia.
# cortical infarct [2] = assay: MRI infarct volume in rats with CIR; type: in vivo, rat; conditions: day 28 after reperfusion
# Method: as §4
# MRI was performed on rats under anesthesia in a General Electric imaging system (R4; GE) at 3.0 T. Brains were scanned in 6-8 coronal image slices, each 2 mm thick without any gaps. […] The area of infarct was drawn manually from slice to slice, and the volume was then calculated by internal volume analysis software (Voxtool; GE) (Shyu W C, Lin S Z, Chiang M E, Chen D C, Su C Y, Wang H J, et al. Secretoneurin promotes neuroprotection and neuronal plasticity via the Jak2/Stat3 pathway in murine models of stroke. The Journal of clinical investigation. 2008; 118(1):133-48, which is incorporated by reference). […]
# rats with CIR = assay: Neurological behavioral measurements in rats with CIR; type: in vivo, rat
# Method: as §4
# Behavioral assessments were performed 3 days before cerebral ischemia and 72 hours after cerebral ischemia. The tests measured body asymmetry and locomotor activity. Furthermore, grip strength was analyzed using Grip Strength Meter (TSE-Systems) as previously described with modification. In brief, the percentage of improvement in grip strength was measured on each fore limb separately and was calculated as the ratio between mean strength of 20 pulls of the side contralateral to the ischemia and the ipsilateral side. In addition, the ratio of grip strength after treatment to baseline was also calculated, and changes were presented as percent of baseline (Shyu W C, Lin S Z, Chiang M F, Chen D C, Su C Y, Wang H J, et al. Secretoneurin promotes neuroprotection and neuronal plasticity via the Jak2/Stat3 pathway in murine models of stroke. The Journal of clinical investigation. 2068; 118(1):133-48, which is incorporated by reference).
# as §5
Compound,OGDR-induced glutamate release (extracellular glutamate content) (system xc−),LDH levels (WT cortical cells),apoptosis in neurons (neurons),apoptosis in astrocytes (astrocytes),cortical infarct volume (TTC staining) (cortical infarct [1]),hyperfunction of NMDAR (binding radioactivity of 18F-FSAG) (NMDAR),"extracellular glutamate content in ischemic cortex (ischemic cortex; 5 mg/kg/day BID for 3 days, 4 to 72 h after reperfusion)",suppression of glutamate efflux in ischemic cortex at different dosages (ischemic cortex; different dosages),inhibition of TUNEL-positive cells at different dosages (TUNEL-positive cells; different dosages),"number of TUNEL-positive cells (TUNEL-positive cells; ischemic penumbra, 24 h after reperfusion)",cortical infarct size (MRI) (cortical infarct [2]),"locomotor activity (number of vertical movements, vertical activity, vertical movement time) (rats with CIR; between 7 and 28 days after CIR, compared with controls)","improvement in grip strength (rats with CIR; day 28 after reperfusion, compared with control groups)","body asymmetry (rats with CIR; days 7 to 28, compared with control rats)"
CNC(=O)c1cc(Oc2ccc(NC(=O)Nc3ccc(Cl)c(C(F)(F)F)c3)cc2)ccn1 [sorafenib],inhibited,inhibited,inhibited,inhibited,significantly smaller,inhibited,,,,,,,,
O=C(O)c1cc(/N=N/c2ccc(S(=O)(=O)Nc3ccccn3)cc2)ccc1O [sulfasalazine],inhibited,inhibited,inhibited,inhibited,,inhibited,reduction,inhibited CIR-induced glutamate release in a dose-dependent manner,decreased CIR-induced apoptosis in a dose-dependent manner,significantly reduced,remarkable size reductions,significantly higher,higher percentage of improvement,significantly reduced
